Tests used:
CDK2 = CDK2 (Homo sapiens, UniProt P24941); details: off-target of the PKCα inhibitor; cited from earlier work
primary AML cells = assay: Viability of primary AML cells (Guava ViaCount), IC50 and SC; assay type: cell-based, human; details: 36 primary AML cases; threshold 50% reduction in viability at 1 μM
Protocol: All patients gave informed consent for the storage of their blood cells for research purposes. Each procedure was conducted in accordance with the East London and City Research Ethics Committee, as previously described (Miraki-Moud, F. et al. Blood 125, 4060-4068 (2015)). All studies comply with the rules of the Review Board and by the revised Helsinki protocol. Peripheral blood was extracted from AML patients at St Bartholomew's Hospital and mononuclear cells, isolated using Ficoll gradient followed by red cell lysis, were stored in liquid N2. Primary AML blasts were thawed following standard procedures: briefly, vials were defrosted at 37 C and exposed to 500 μg of DNAse (Sigma) for 5 minutes. […] Cell number and viability were determined by trypan blue staining using a Vi-CELL XR cell viability analyser (Beckman Coulter).
Cell-lines were seeded in 96 well plates (10,000 cells-well-), left overnight and treated with vehicle, or 1 to 1000 nM of AZD-5438 (CDK2i;), GF-109203X (PKCαi; Tocris), PF-3758309 (PAKi; Calbiochem), Trametinib (MEKi; Selleckchem), MK-2206 (AKTi; Selleckchem), KU-0063794 (mTORi; Chemdea) or TAK 715 (P38αi;). […] After 72 h, cells were stained with Guava ViaCount reagent (Millipore) as indicated by the manufacturer and cell number and viability was measured using a Guava EasyCyte Plus instrument. […] Flow cytometry data were analyzed using CytoSoft (v2.5.7). […]

[1] = test system: eight haematological cell-lines; assay: Viability of haematological cell-lines (Guava ViaCount) and sensitivity coefficient (SC); assay type: cell-based; details: nine kinase inhibitors of Table 1
Protocol: B-cell lymphoma and leukemia cell-lines were routinely maintained in RPMI-1640 medium supplemented with 10% fetal-bovine serum (FBS) and 100 U·mL^−1 penicillin/streptomycin (P/S). Cells were maintained at a confluency of 0.5-2.0×10^6 cells·mL^−1. Stromal cells were grown in IMDM medium (supplemented with 10% FBS and 100 U·mL^−1 P/S) and maintained at a confluency of 2.0-30.0×10^6 cells in 175 cm^2 flasks. MS-5 conditioned IMDM medium was generated by growing stromal cells in IMDM for 3 days. All cells were kept at 37° C. in a humidified atmosphere at 5% CO2.
Cell-lines were seeded in 96 well plates (10,000 cells-well-), left overnight and treated with vehicle, or 1 to 1000 nM of AZD-5438 (CDK2i;), GF-109203X (PKCαi; Tocris), PF-3758309 (PAKi; Calbiochem), Trametinib (MEKi; Selleckchem), MK-2206 (AKTi; Selleckchem), KU-0063794 (mTORi; Chemdea) or TAK 715 (P38αi;). Cells were also treated with 0.01 to 10 μM of PKC-412 (PKC/Flt3i; Tocris) or 0.1 to 10 μM of TBB (CK2i; Sigma). After 72 h, cells were stained with Guava ViaCount reagent (Millipore) as indicated by the manufacturer and cell number and viability was measured using a Guava EasyCyte Plus instrument. […] After 72 h, cells were stained with Guava ViaCount reagent and cell number and viability was measured. […] Flow cytometry data were analyzed using CytoSoft (v2.5.7). IC50 values were calculated using Graphpad PRISM (v5.03). […]

tyrosine kinases = assay: K-score (Kinase Activity Ranking) of cells after pervanadate treatment, LC-MS/MS phosphoproteomics; assay type: cell-based; details: 1 mM sodium pervanadate, 30 min; lysates mixed with untreated lysates
Protocol: Technical replicates were averaged and peak areas for each phosphopeptide ion were then normalized to the sum of peptide intensities for each sample. […] Kinase Activity Ranking (KAR) was calculated for kinase K using the equation below (where m=the number of phosphorylation sites in the dataset matched to kinase K; α=the normalized intensity of the phosphorylation site i; l=the total number of phosphorylation sites in the dataset regardless of any kinase-substrate association; β=the normalized intensity of the phosphorylation site j; t=the total number of known target phosphorylation sites in the PhosphoSitePlus database for kinase K). […]
P31/Fuj cells were exposed to 1 mM sodium pervanadate or left untreated during 30 min (Sodium pervanadate was prepared by mixing 30% H2O2 and 100 mM Na3VO4 pH 8.0 at 1:100 ratio during 15 min). […] After homogenization and protein quantification, treated and untreated cell lysates were mixed to a final protein concentration of 1.0 μg·μL^−1. […]
We first investigated the reproducibility and quantitative nature of Kinase Activity Ranking (KAR, which produces K-scores) as a measure of net kinase activity. […] To test the reproducibility of the analysis, we performed this experiment on three independent occasions and each was analyzed in analytical triplicate. […]

Molecule | Number of cases sensitive to this inhibitor only (primary AML cells) | Ranking of the kinase inhibitors based on their SCs (sensitivity coefficients) [1] | other results
CN(C)CCCn1cc(C2=C(c3c[nH]c4ccccc34)C(=O)NC2=O)c2ccccc21 [PKCαi, GF109203X] | – | – | Inhibition of CDK2 (CDK2): high potency
O=C(O)c1ccc2c(c1)nc(Nc1cccc(Cl)c1)c1ccncc12 [CK2i, CX4945] | Five | – | –
Cc1nc(Nc2[nH]nc3c2CN(C(=O)N[C@H](CN(C)C)c2ccccc2)C3(C)C)c2sccc2n1 [PAKi, PF03758309] | – | ranked the highest | –
Cc1ncc(-c2ccnc(Nc3ccc(S(C)(=O)=O)cc3)n2)n1C(C)C [CDK2i, AZD5438] | – | ranked the highest | –
sodium pervanadate [pV] | – | – | Change of the K-Score of tyrosine kinases (tyrosine kinases): increase
CC(=O)Nc1cccc(-n2c(=O)n(C3CC3)c(=O)c3c(Nc4ccc(I)cc4F)n(C)c(=O)c(C)c32)c1 [MEK1i, GSK1120212] | three | – | –

Reference: patent US12360118B2, “Method for protein kinase activity ranking” (KINOMICA LIMITED, priority 2015, dated 2025)
